This note sets out measurements from EP0755932A1, “(Thiophen-2-yl)piperidin or tetrahydropyridin-azabicyclocarboxamides” (AMERICAN HOME PRODUCTS CORPORATION, priority 1995, dated 1997).

The target in the experiment is T1, 5-HT1A serotonin receptor (Rattus norvegicus, UniProt P19327).
T1 construct: from tissue; host or cells: rat brain membranes (inferred from the cited Hall et al. procedure)
T1 sequence (P19327 1-422): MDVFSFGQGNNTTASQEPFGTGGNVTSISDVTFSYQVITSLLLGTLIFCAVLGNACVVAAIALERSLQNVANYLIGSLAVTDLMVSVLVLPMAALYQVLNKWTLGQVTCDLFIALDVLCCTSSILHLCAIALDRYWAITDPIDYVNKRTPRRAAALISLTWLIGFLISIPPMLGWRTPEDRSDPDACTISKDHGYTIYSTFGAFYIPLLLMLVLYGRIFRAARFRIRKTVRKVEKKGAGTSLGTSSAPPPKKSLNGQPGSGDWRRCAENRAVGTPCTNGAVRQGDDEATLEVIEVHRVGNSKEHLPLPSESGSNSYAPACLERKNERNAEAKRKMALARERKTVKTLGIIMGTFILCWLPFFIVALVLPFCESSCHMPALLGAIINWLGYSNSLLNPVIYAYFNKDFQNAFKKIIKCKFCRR
The experiment can be described thus: Displacement of [3H] 8-OHDPAT from the 5-HT1A serotonin receptor (procedure of Hall et al.). It is filed as binding. An excerpt:
8-OHDPAT (dipropylaminotetralin) from the 5-HT1A serotonin receptor following the procedure of Hall et al., J. Neurochem. 44, 1685 (1985).

Molecules are shown by their SMILES. pIC50: −log10 of the molar value.

For `COc1ccsc1C1(O)CCN(CC[C@@H](C(=O)N2C3CCCC2CC3)c2ccccc2)CC1` [Example 1, (R)-1-(8-Aza-bicyclo[3.2.1.]oct-8-yl)-4-[4-hvdroxy-4-(3-methoxythiophen-2-yl)-piperidin-1-yl]-2-phenylbutan-1-one], the pIC50 is 6.03. On to `COc1ccsc1C1=CCN(CC[C@@H](C(=O)N2C3CCCC2CC3)c2ccccc2)CC1` [Example 2, (R)-1-(8-Aza-bicyclo[3.2.1.]oct-8-yl)4-[4-(3-methoxythiophen-2-yl)-1,2,3,6-tetrahydropyridin-1-yl]-2-phenylbutan-1-one], for which the pIC50 is 9.05.
